Key:
[1] = target: T1, G protein-coupled receptor kinase 3 (Homo sapiens) (UniProt P35626); experiment: Inhibition of human GRK3 at 500 nM by HotSpot assay relative to control
T1 sequence (whole entry): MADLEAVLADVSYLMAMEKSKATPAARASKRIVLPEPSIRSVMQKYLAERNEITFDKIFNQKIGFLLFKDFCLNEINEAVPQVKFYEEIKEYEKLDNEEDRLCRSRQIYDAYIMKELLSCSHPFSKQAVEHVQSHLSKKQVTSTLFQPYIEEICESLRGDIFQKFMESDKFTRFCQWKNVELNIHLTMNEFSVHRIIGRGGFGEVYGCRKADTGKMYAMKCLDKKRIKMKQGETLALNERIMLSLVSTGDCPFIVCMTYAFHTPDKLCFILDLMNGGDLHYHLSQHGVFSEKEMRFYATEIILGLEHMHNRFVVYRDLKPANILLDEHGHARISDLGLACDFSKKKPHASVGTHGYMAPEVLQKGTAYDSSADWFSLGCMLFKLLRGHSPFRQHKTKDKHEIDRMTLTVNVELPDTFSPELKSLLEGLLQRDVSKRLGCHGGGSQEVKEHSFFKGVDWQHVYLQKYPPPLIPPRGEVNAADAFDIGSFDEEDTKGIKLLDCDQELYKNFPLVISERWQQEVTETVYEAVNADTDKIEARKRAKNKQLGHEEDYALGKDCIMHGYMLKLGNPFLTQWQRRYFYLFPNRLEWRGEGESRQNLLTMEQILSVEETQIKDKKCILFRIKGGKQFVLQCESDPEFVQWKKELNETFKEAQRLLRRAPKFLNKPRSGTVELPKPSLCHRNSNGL

[2] = target: T2, Serine/threonine-protein kinase D1 (Homo sapiens) (UniProt Q15139); experiment: Inhibition of human PRKD1 at 500 nM by HotSpot assay relative to control
T2 sequence (whole entry): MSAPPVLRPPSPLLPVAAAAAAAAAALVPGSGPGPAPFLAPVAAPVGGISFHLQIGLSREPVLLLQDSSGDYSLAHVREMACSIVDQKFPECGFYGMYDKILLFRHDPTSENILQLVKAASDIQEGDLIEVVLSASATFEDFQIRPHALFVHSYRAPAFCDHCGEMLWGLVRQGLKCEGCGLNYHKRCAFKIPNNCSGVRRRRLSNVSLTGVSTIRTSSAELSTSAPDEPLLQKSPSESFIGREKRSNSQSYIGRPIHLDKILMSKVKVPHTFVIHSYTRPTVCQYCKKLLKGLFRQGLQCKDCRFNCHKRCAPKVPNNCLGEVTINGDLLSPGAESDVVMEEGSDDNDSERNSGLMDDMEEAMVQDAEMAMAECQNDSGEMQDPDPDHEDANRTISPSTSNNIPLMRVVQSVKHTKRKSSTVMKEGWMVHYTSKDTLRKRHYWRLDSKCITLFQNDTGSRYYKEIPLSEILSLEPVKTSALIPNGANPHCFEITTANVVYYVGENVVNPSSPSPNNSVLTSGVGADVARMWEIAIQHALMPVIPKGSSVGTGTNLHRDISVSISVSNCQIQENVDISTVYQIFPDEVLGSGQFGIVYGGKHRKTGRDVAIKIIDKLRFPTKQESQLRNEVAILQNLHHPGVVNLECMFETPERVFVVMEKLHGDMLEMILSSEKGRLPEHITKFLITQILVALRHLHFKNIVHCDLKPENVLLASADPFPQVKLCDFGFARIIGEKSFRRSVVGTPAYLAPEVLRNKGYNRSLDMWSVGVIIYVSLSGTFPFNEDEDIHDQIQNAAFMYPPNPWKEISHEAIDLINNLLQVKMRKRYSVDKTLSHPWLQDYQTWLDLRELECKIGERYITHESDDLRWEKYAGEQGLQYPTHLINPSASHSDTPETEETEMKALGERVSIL

[3] = target: T3, Inhibitor of nuclear factor kappa-B kinase subunit epsilon (Homo sapiens) (UniProt Q14164); experiment: Inhibition of human IKKe at 500 nM by HotSpot assay relative to control
T3 sequence (whole entry): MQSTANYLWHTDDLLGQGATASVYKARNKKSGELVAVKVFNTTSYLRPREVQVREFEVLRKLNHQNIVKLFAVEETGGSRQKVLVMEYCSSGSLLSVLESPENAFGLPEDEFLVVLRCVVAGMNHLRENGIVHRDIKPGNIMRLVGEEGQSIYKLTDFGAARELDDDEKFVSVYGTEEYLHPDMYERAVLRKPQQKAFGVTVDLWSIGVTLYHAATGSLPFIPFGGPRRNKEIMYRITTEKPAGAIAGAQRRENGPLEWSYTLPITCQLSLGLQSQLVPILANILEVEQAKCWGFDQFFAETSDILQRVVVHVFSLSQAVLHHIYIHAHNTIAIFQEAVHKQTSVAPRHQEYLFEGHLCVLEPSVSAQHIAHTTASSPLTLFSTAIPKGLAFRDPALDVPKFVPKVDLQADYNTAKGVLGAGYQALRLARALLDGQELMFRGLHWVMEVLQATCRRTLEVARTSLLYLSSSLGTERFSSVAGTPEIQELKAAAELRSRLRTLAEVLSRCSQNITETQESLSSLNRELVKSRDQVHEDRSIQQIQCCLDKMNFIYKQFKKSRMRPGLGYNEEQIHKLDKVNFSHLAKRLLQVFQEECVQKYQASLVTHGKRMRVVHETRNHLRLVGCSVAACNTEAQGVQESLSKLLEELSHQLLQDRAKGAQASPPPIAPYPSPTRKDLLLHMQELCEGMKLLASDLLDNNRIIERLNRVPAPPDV

[4] = target: Dual specificity protein kinase CLK2 (Homo sapiens) (UniProt P49760); experiment: Inhibition of human CLK2 at 500 nM by HotSpot assay relative to control
[5] = target: Activin receptor type-1-like (Homo sapiens) (UniProt P37023); experiment: Inhibition of human ALK1 at 500 nM by HotSpot assay relative to control
[6] = target: Protein-tyrosine kinase 2-beta (Homo sapiens) (UniProt Q14289); experiment: Inhibition of human PYK2 at 500 nM by HotSpot assay relative to control
[7] = target: Serine/threonine-protein kinase N2 (Homo sapiens) (UniProt Q16513); experiment: Inhibition of human PRK2 at 500 nM by HotSpot assay relative to control
Serine/threonine-protein kinase N2 (Homo sapiens), sequence (Q16513 whole entry, looked up): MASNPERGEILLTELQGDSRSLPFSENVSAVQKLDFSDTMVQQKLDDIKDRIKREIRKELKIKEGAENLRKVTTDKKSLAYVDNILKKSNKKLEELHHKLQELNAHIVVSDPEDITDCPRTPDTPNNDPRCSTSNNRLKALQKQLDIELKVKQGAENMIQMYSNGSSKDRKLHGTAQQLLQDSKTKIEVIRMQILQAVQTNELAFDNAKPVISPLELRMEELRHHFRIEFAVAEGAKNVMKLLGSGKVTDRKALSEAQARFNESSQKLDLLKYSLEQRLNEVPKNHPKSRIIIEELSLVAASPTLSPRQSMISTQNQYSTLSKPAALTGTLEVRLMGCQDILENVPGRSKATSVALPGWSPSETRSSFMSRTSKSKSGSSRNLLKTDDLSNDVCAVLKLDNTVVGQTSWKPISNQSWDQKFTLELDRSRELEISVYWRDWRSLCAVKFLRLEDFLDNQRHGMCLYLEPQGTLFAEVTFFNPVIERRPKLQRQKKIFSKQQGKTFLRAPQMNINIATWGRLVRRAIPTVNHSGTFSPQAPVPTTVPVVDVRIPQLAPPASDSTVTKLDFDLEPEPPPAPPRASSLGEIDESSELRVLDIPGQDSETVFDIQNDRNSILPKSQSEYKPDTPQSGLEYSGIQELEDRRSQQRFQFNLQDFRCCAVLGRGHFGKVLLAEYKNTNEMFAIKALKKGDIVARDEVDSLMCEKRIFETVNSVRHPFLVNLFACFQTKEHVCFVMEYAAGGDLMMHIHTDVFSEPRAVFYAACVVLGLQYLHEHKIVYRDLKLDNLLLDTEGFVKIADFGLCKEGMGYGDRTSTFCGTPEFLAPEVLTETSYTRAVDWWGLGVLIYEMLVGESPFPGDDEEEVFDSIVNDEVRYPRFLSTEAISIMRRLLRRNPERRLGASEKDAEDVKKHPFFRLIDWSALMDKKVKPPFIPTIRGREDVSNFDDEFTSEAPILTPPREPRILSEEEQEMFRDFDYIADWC

Activin receptor type-1-like (Homo sapiens), sequence (P37023 whole entry): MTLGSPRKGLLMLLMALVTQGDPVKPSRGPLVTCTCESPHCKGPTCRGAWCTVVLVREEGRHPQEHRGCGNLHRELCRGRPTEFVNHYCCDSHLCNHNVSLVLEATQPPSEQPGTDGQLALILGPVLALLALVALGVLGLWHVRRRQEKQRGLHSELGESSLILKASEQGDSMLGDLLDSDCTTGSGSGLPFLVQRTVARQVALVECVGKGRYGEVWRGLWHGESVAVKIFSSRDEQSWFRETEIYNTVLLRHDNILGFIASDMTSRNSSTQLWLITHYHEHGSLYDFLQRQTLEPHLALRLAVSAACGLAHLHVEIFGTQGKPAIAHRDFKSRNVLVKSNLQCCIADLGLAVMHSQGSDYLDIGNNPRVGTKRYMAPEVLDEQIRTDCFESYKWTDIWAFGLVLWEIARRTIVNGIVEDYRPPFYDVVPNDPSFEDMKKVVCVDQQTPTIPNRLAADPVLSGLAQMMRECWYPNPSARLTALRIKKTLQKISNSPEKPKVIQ
Dual specificity protein kinase CLK2 (Homo sapiens), sequence (P49760 whole entry, looked up): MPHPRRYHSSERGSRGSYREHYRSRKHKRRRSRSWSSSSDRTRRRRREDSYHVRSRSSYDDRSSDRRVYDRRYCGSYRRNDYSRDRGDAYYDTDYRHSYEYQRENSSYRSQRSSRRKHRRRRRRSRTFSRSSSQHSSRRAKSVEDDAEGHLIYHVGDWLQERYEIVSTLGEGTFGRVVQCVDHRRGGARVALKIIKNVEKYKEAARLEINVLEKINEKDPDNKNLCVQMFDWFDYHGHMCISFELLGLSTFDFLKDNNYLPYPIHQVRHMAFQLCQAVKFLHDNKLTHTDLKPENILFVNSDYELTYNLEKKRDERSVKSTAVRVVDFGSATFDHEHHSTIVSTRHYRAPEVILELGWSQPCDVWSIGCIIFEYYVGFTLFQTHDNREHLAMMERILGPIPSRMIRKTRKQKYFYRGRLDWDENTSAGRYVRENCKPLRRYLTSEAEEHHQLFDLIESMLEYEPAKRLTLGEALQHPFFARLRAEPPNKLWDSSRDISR
Protein-tyrosine kinase 2-beta (Homo sapiens), sequence (Q14289 whole entry, looked up): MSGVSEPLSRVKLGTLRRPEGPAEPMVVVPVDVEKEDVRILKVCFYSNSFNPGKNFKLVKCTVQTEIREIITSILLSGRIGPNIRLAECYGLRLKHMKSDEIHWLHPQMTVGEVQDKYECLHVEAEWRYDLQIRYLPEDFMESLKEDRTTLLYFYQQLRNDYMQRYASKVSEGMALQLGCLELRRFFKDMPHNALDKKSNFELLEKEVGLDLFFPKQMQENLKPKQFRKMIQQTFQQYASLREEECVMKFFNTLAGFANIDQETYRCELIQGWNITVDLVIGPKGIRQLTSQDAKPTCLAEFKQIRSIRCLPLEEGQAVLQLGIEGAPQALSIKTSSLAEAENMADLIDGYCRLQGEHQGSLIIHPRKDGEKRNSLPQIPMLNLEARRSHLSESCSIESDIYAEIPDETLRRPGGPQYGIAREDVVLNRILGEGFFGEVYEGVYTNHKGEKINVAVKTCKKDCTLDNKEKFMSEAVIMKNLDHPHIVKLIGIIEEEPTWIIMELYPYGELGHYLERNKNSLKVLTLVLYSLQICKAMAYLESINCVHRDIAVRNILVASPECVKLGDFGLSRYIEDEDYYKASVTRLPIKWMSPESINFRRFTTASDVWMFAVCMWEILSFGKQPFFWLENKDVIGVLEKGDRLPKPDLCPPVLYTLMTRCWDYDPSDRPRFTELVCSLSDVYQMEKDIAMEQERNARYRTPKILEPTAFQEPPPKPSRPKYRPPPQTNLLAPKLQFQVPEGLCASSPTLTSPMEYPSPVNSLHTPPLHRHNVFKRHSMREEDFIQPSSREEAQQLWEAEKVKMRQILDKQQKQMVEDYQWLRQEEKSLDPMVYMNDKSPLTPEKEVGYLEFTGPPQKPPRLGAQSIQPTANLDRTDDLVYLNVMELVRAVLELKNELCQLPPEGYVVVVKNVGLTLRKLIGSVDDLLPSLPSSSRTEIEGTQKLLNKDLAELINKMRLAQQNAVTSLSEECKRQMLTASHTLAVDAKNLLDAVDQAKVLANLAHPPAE

SMILES | inhibition [1] [%] | inhibition [2] [%] | inhibition [3] [%] | inhibition [4] [%] | inhibition [5] [%] | inhibition [6] [%] | inhibition [7] [%]
Oc1n[nH]c2nnc(-c3c(-c4ccccc4)nn4ccccc34)cc12 | -1.47 | -0.59 | 0.81 | 2.49 | -0.63 | 2.81 | 1.9
Nc1n[nH]c2nnc(-c3c(-c4ccccc4)nn4ccccc34)cc12 | -0.84 | 31.6 | 4.54 | -1.46 | -6.11 | 4.57 | 1.14

Source: ChEMBL document CHEMBL5653615 (J Biol Chem, 2013)
